Measurements as given in patent US11420970B1 (NOVARTIS AG, priority 2019, dated 2022).
Like-named read-outs stand apart in the source and are kept apart here.

Tests used:
[1] = molecular target: NSD2 [1-1365] (Homo sapiens (Human), UniProt O96028); assay: LC-MS/MS-based NSD2 enzymatic assay (SAH production); format: biochemical; details: read-out: NSD2 IC50
Summary of the method: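 SAH formed was measured by LC-MS/MS using d4-SAH as internal standard and an SAH calibration curve. Compounds were preincubated 20 min with NSD2 [1-1365] and SAM; mouse-liver nucleosome then started a 90 min room-temperature reaction (8 nM enzyme, 1 μM SAM, 400 nM nucleosome final, pH 8.0), stopped with TFA.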

[2] = tested on: cellular H3K36me2 level in thyroid carcinoma cell line CGTH-W-1 (NSD2 E1099K); assay: H3K36me2 cellular ELISA assay in CGTH-W-1 line; format: cell-based; details: Homo sapiens, CGTH-W-1, 72 h, read-out: H3K36me2 ELISA in CGTH-W-1
Summary of the method: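 After 72 h compound treatment of NSD2 E1099K-mutant CGTH-W-1 cells, H3K36me2 and total H3 were quantified by ELISA with chemiluminescent read-out. A parallel-seeded plate gave cell viability by CellTiter-Glo.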

[3] = tested on: cellular H3K36me2 level in multiple myeloma cell line KMS11 (t(4;14)+); assay: H3K36me2 cellular ELISA assay in KMS11-Par line; format: cell-based; details: Homo sapiens, KMS-11, ELISA, read-out: H3K36me2 ELISA in KMS11-Par
Summary of the method: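 After 72 h compound exposure, HCl-extracted histones from KMS11 (t(4;14)+) cells were probed by ELISA for H3K36me2 against total H3 with a chemiluminescence read-out. Cells were plated at 1,250/well in Opti-MEM plus B-27 and N2 the day before. A parallel CellTiter-Glo plate tracked viability.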

[4] = NSD2 biochemical activity, class symbols
[5] = KMS11-Par line (t(4;14)+), 72 hours treatment

Chain of NSD2 [1-1365] (O96028 whole entry): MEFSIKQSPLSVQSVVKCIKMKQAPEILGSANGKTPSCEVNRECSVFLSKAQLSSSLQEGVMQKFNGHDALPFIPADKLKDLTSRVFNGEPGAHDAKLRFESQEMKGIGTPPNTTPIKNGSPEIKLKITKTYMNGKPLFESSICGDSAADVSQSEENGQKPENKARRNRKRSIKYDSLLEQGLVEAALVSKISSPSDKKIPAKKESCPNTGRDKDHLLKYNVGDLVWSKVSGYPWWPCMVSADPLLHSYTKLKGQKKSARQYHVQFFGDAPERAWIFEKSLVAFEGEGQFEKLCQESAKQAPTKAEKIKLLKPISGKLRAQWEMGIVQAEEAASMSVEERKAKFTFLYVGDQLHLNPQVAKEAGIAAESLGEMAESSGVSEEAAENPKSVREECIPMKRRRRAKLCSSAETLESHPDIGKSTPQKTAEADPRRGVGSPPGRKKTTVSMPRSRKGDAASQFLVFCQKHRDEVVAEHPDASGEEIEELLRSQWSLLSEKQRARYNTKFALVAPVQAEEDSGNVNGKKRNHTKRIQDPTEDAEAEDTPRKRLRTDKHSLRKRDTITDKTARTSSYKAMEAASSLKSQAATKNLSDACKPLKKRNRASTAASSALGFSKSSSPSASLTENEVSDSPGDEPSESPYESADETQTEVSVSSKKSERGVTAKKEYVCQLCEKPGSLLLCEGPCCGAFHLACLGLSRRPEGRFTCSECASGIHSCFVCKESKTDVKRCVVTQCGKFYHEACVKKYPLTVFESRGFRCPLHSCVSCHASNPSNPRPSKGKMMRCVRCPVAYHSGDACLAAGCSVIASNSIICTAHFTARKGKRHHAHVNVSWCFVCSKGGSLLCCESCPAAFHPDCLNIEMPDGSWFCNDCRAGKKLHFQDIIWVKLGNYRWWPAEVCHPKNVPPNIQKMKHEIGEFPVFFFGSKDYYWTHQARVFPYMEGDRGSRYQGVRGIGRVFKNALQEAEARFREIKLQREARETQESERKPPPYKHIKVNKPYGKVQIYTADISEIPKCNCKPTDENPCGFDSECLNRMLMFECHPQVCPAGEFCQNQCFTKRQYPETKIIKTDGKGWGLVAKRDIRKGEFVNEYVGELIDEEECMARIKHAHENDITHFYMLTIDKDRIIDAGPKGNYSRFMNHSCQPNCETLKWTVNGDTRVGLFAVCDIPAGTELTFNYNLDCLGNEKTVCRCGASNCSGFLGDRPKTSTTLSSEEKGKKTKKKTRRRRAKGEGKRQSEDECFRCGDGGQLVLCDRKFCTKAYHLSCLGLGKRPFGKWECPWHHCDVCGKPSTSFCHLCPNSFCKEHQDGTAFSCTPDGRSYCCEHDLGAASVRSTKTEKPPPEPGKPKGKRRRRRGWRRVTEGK

| Structure (SMILES) | IC50 [1] [nM] | IC50 [2] [nM] | IC50 ([3]; KMS11-Par line, 72 hours) [nM] | IC50 [1, 4] [nM] | IC50 [3, 5] [nM] |
| --- | --- | --- | --- | --- | --- |
| Cc1nc([C@@]2(N)CCCN(c3cnc(-c4ccc(F)cc4)cc3Cn3cnc4c(N)ncnc43)C2)ccc1F [Example 190, (R)-9-((5-(3-amino-3-(5-fluoro-6-methylpyridin-2-yl)piperidin-1-yl)-2-(4-fluorophenyl)pyridin-4-yl)methyl)-9H-purin-6-amine] | 1 to 10 | 258 | 687 |  |  |
| Nc1ncnc2c1ncn2Cc1cc(-c2ccc(F)c(F)c2)ncc1N1CCC[C@](N)(c2ccccn2)C1 [Example 198, (R)-9-((5-(3-amino-3-(pyridin-2-yl)piperidin-1-yl)-2-(3,4-difluorophenyl)pyridin-4-yl)methyl)-9H-purin-6-amine] | 1 to 10 | 17.7 | 41 |  |  |
| Nc1ncnc2c1ncn2Cc1cc(-c2cc(F)c(F)cc2C(F)F)ncc1N1CCC[C@](N)([C@H](O)C(F)F)C1 [Example 171, (S)-1-((R)-3-amino-1-(4-((6-amino-9H-purin-9-yl)methyl)-6-(2-(difluoromethyl)-4,5-difluorophenyl)pyridin-3-yl)piperidin-3-yl)-2,2-difluoroethan-1-ol] | 10 to 1000 | 886 | 5520 |  |  |
| Nc1ncnc2c1ncn2Cc1cc(-c2cnc(F)c(Cl)c2)ncc1N1CCC[C@](N)(c2cccc(Cl)n2)C1 [Example 180, (R)-9-((5-(3-amino-3-(6-chloropyridin-2-yl)piperidin-1-yl)-5′-chloro-6′-fluoro-[2,3′-bipyridin]-4-yl)methyl)-9H-purin-6-amine] | 10 to 1000 | 1460 | 5490 |  |  |
| CC1(C(=O)C2(N)CCCN(c3cnc(-c4ccc(F)c(F)c4)cc3Cn3cnc4c(N)ncnc43)C2)CC1 (stereo not drawn) [Example 107, (3-amino-1-(4-((6-amino-9H-purin-9-yl)methyl)-6-(3,4-difluorophenyl)pyridin-3-yl)piperidin-3-yl)(1-methylcyclopropyl)methanone] |  | 446 |  | 10 to 1000 | 3020 |
| Nc1ncnc2c1ncn2Cc1cc(-c2ccc(OC(F)F)cc2F)ncc1N1CCC[C@](N)([C@@H](O)C(F)F)C1 [Example 138, (R)-1-((R)-3-amino-1-(4-((6-amino-9H-purin-9-yl)methyl)-6-(4-(difluoromethoxy)-2-fluorophenyl)pyridin-3-yl)piperidin-3-yl)-2,2-difluoroethan-1-ol] |  | 132 |  | 10 to 1000 | 1570 |
| Nc1ncnc2c1ncn2Cc1cc(-c2ccc(C(F)(F)F)cc2F)ncc1N1CCC[C@](N)([C@@H](O)C(F)F)C1 [Example 141, (R)-1-((R)-3-amino-1-(4-((6-amino-9H-purin-9-yl)methyl)-6-(2-fluoro-4-(trifluoromethyl)phenyl)pyridin-3-yl)piperidin-3-yl)-2,2-difluoroethan-1-ol] |  | 1150 |  | 10 to 1000 | 7700 |
| CC(C(=O)C1(N)CCCN(c2cnc(-c3ccc(F)c(F)c3)cc2Cn2cnc3c(N)ncnc32)C1)C1CC1 (stereo not drawn) [Example 103, 1-(3-amino-1-(4-((6-amino-9H-purin-9-yl)methyl)-6-(3,4-difluorophenyl)pyridin-3-yl)piperidin-3-yl)-2-cyclopropylpropan-1-one] |  | 138 |  | 10 to 1000 | 379 |
| COc1ccc(-c2cc(Cn3cnc4c(N)ncnc43)c(N3CCC[C@](N)([C@H](O)C(F)F)C3)cn2)c(C(F)F)c1 [Example 163, (S)-1-((R)-3-amino-1-(4-((6-amino-9H-purin-9-yl)methyl)-6-(2-(difluoromethyl)-4-methoxyphenyl)pyridin-3-yl)piperidin-3-yl)-2,2-difluoroethan-1-ol] |  | 204 |  | 1 to 10 | 1850 |
| Nc1ncnc2c1ncn2Cc1cc(-c2ccc(F)c(F)c2)ncc1N1CCC[C@](N)(c2cc(O)cc(Cl)n2)C1 [Example 219, (R)-2-(3-amino-1-(4-((6-amino-9H-purin-9-yl)methyl)-6-(3,4-difluorophenyl)pyridin-3-yl)piperidin-3-yl)-6-chloropyridin-4-ol] | 1 to 10 | 407 | 3450 |  |  |
| Nc1ncnc2c1ncn2Cc1cc(-c2ccc(F)cc2C(F)F)ncc1N1CCC[C@](N)([C@H](O)C(F)F)C1 [Example 159, (S)-1-((R)-3-amino-1-(4-((6-amino-9H-purin-9-yl)methyl)-6-(2-(difluoromethyl)-4-fluorophenyl)pyridin-3-yl)piperidin-3-yl)-2,2-difluoroethan-1-ol] |  | 140 |  | 1 to 10 | 1130 |
| COc1ccc(-c2cc(Cn3cnc4c(N)ncnc43)c(N3CCC[C@](N)(c4cccc(Cl)n4)C3)cn2)c(F)c1F [Example 242, (R)-9-((5-(3-amino-3-(6-chloropyridin-2-yl)piperidin-1-yl)-2-(2,3-difluoro-4-methoxyphenyl)pyridin-4-yl)methyl)-9H-purin-6-amine] | 10 to 1000 | 2710 | 8190 |  |  |
| Nc1ncnc2c1ncn2Cc1cc(-c2ccc(F)cc2)ncc1N1CCCC(N)(c2ccc(F)c(CF)n2)C1 (stereo not drawn) [Example 193, 9-((5-(3-amino-3-(5-fluoro-6-(fluoromethyl)pyridin-2-yl)piperidin-1-yl)-2-(4-fluorophenyl)pyridin-4-yl)methyl)-9H-purin-6-amine] | 10 to 1000 | 876 | 1850 |  |  |
| COC1CCC(C(=O)C2(N)CCCN(c3cnc(-c4ccc(F)c(F)c4)cc3Cn3cnc4c(N)ncnc43)C2)C1 (stereo not drawn) [Example 106, (3-amino-1-(4-((6-amino-9H-purin-9-yl)methyl)-6-(3,4-difluorophenyl)pyridin-3-yl)piperidin-3-yl)(3-methoxycyclopentyl)methanone] |  | 501 |  | 10 to 1000 | 1430 |
| Nc1ncnc2c1ncn2Cc1cc(-c2ccc(F)c(F)c2)ncc1N1CCC[C@](N)([C@H](O)C(F)F)C1 [Example 114, (S)-1-((R)-3-amino-1-(4-((6-amino-9H-purin-9-yl)methyl)-6-(3,4-difluorophenyl)pyridin-3-yl)piperidin-3-yl)-2,2-difluoroethan-1-ol] |  | 443 |  | 10 to 1000 | 1940 |
| Nc1ncnc2c1ncn2Cc1cc(-c2ccc(F)cn2)ncc1N1CCC[C@](N)([C@@H](O)C(F)F)C1 [Example 155, (R)-1-((R)-3-amino-1-(4-((6-amino-9H-purin-9-yl)methyl)-5′-fluoro-[2,2′-bipyridin]-5-yl)piperidin-3-yl)-2,2-difluoroethan-1-ol] |  | 1170 |  | 10 to 1000 | 16400 |
| Nc1ncnc2c1ncn2Cc1cc(-c2ccc(F)c(F)c2)ncc1N1CCC[C@](N)(c2nc(F)ccc2O)C1 [Example 239, (R)-2-(3-amino-1-(4-((6-amino-9H-purin-9-yl)methyl)-6-(3,4-difluorophenyl)pyridin-3-yl)piperidin-3-yl)-6-fluoropyridin-3-ol] | 1 to 10 | 353 | 1540 |  |  |
| COc1ccc(-c2cc(Cn3cnc4c(N)ncnc43)c(N3CCC[C@](N)(c4ccc(F)c(Cl)n4)C3)cn2)cc1F [Example 188, (R)-9-((5-(3-amino-3-(6-chloro-5-fluoropyridin-2-yl)piperidin-1-yl)-2-(3-fluoro-4-methoxyphenyl)pyridin-4-yl)methyl)-9H-purin-6-amine] | 1 to 10 | 1010 | 1910 |  |  |
| COc1ccc(-c2cc(Cn3cnc4c(N)ncnc43)c(N3CCC[C@](N)([C@H](O)C(F)F)C3)cn2)c(Cl)c1 [Example 168, (S)-1-((R)-3-amino-1-(4-((6-amino-9H-purin-9-yl)methyl)-6-(2-chloro-4-methoxyphenyl)pyridin-3-yl)piperidin-3-yl)-2,2-difluoroethan-1-ol] | 10 to 1000 | 997 | 4780 |  |  |
| Nc1ncnc2c1ncn2Cc1cc(-c2cnc(O)c(F)c2)ncc1N1CCCC(N)(c2cccc(Cl)n2)C1 (stereo not drawn) [Example 244, 5-(3-amino-3-(6-chloropyridin-2-yl)piperidin-1-yl)-4-((6-amino-9H-purin-9-yl)methyl)-5′-fluoro-[2,3′-bipyridin]-6′-ol] | 10 to 1000 | 12500 | 33300 |  |  |
| Nc1ncnc2c1ncn2Cc1cc(-c2ccc(Cl)c(F)c2)ncc1N1CCC[C@](N)([C@@H](O)C(F)F)C1 [Example 124, (R)-1-((R)-3-amino-1-(4-((6-amino-9H-purin-9-yl)methyl)-6-(4-chloro-3-fluorophenyl)pyridin-3-yl)piperidin-3-yl)-2,2-difluoroethan-1-ol] |  | 159 |  | 1 to 10 | 848 |
| Nc1ncnc2c1ncn2Cc1cc(-c2cnc(F)c(F)c2)ncc1N1CCCC(N)(c2cccc(Cl)n2)C1 (stereo not drawn) [Example 240, 9-((5-(3-amino-3-(6-chloropyridin-2-yl)piperidin-1-yl)-5′,6′-difluoro-[2,3′-bipyridin]-4-yl)methyl)-9H-purin-6-amine] | 10 to 1000 | 821 | 5930 |  |  |
